Assay results reported in ChEMBL document CHEMBL4699507, “Rhopaladins' analogue (E)-2-aroyl-4-(4-fluorobenzylidene)-5-oxopyrrolidines inhibit proliferation, promote apoptosis and down-regulation of E6/E7 mRNA in cervical cancer” (2020).

How the values were obtained:
Ca-Ski [1] = assay: Antiproliferative activity against human CaSki cells assessed as inhibition of cell viability incubated for 48 hrs by MTT assay; type: functional, cell-based; details: dose microM 3.125-100, time 48.0 hrs
[2] = Inhibition of Human papillomavirus type 16 derived E7 gene expression in human CaSki cells assessed as fold change in expression at 25 uM measured after 48 hrs by RT-qPCR analysis relative to control; type: functional, Ca-Ski
[3] = Inhibition of Human papillomavirus type 16 derived E6 gene expression in human CaSki cells assessed as fold change in expression at 12.5 uM measured after 48 hrs by RT-qPCR analysis relative to control; type: functional, Ca-Ski
Ca-Ski [4] = assay: Induction of apoptosis in human CaSki cells assessed as late apoptotic cells at 25 uM after 48 hrs by Annexin V-FITC/PI double staining based flow cytometric analysis (Rvb =5.59%); type: functional
Ca-Ski [5] = assay: Induction of apoptosis in human CaSki cells assessed as viable cells at 12.5 uM after 48 hrs by Annexin V-FITC/PI double staining based flow cytometric analysis (reference value: 93%); type: functional; details: read-out: Activity
[6] = Inhibition of Human papillomavirus type 16 derived E6 gene expression in human CaSki cells assessed as fold change in expression at 50 uM measured after 48 hrs by RT-qPCR analysis relative to control; type: functional, Ca-Ski
Ca-Ski [7] = assay: Induction of apoptosis in human CaSki cells assessed as late apoptotic cells at 12.5 uM after 48 hrs by Annexin V-FITC/PI double staining based flow cytometric analysis (Rvb =5.59%); type: functional
Ca-Ski [8] = assay: Induction of apoptosis in human CaSki cells assessed as early apoptotic cells at 50 uM after 48 hrs by Annexin V-FITC/PI double staining based flow cytometric analysis (Rvb =0.697%); type: functional
Ca-Ski [9] = assay: Induction of apoptosis in human CaSki cells at 50 uM after 48 hrs by Annexin V-FITC/PI double staining based flow cytometric analysis (reference value: 6.25 +/-0.5%); type: functional
[10] = Inhibition of Human papillomavirus type 16 derived E7 gene expression in human CaSki cells assessed as fold change in expression at 50 uM measured after 48 hrs by RT-qPCR analysis relative to control; type: functional, Ca-Ski
Ca-Ski [11] = assay: Induction of apoptosis in human CaSki cells at 25 uM after 48 hrs by Annexin V-FITC/PI double staining based flow cytometric analysis (reference value: 6.25 +/-0.5%); type: functional
[12] = Inhibition of Human papillomavirus type 16 derived E6 gene expression in human CaSki cells assessed as fold change in expression at 25 uM measured after 48 hrs by RT-qPCR analysis relative to control; type: functional, Ca-Ski
Ca-Ski [13] = assay: Induction of apoptosis in human CaSki cells assessed as necrotic cells at 12.5 uM after 48 hrs by Annexin V-FITC/PI double staining based flow cytometric analysis (Rvb =0.075%); type: functional
Ca-Ski [14] = assay: Induction of apoptosis in human CaSki cells assessed as late apoptotic cells at 50 uM after 48 hrs by Annexin V-FITC/PI double staining based flow cytometric analysis (Rvb =5.59%); type: functional
Ca-Ski [15] = assay: Induction of apoptosis in human CaSki cells assessed as early apoptotic cells at 12.5 uM after 48 hrs by Annexin V-FITC/PI double staining based flow cytometric analysis (Rvb =0.697%); type: functional
Ca-Ski [16] = assay: Induction of apoptosis in human CaSki cells assessed as viable cells at 25 uM after 48 hrs by Annexin V-FITC/PI double staining based flow cytometric analysis (reference value: 93%); type: functional; details: read-out: Activity
Ca-Ski [17] = assay: Antiproliferative activity against human CaSki cells assessed as reduction in cell viability at 3.125-100 uM by MTT assay; type: functional, cell-based; details: dose microM 3.125-100, time hrs 24-72, TDE = time-dependent effect
Ca-Ski [18] = assay: Induction of apoptosis in human CaSki cells after 48 hrs by Annexin V-FITC/PI double staining based flow cytometric analysis; type: functional, cell-based; details: dose microM 12.5-50, time 48.0 hrs
[19] = Inhibition of Human papillomavirus type 16 derived E7 gene expression in human CaSki cells assessed as fold change in expression at 12.5 uM measured after 48 hrs by RT-qPCR analysis relative to control; type: functional, Ca-Ski
Ca-Ski [20] = assay: Induction of apoptosis in human CaSki cells assessed as viable cells at 50 uM after 48 hrs by Annexin V-FITC/PI double staining based flow cytometric analysis (reference value: 93%); type: functional; details: read-out: Activity
Ca-Ski [21] = assay: Induction of apoptosis in human CaSki cells assessed as necrotic cells at 25 uM after 48 hrs by Annexin V-FITC/PI double staining based flow cytometric analysis (Rvb =0.075%); type: functional
Ca-Ski [22] = assay: Induction of apoptosis in human CaSki cells assessed as early apoptotic cells at 25 uM after 48 hrs by Annexin V-FITC/PI double staining based flow cytometric analysis (Rvb =0.697%); type: functional
Ca-Ski [23] = assay: Induction of apoptosis in human CaSki cells assessed as necrotic cells at 50 uM after 48 hrs by Annexin V-FITC/PI double staining based flow cytometric analysis (Rvb =0.075%); type: functional
Ca-Ski [24] = assay: Induction of apoptosis in human CaSki cells at 12.5 uM after 48 hrs by Annexin V-FITC/PI double staining based flow cytometric analysis (reference value: 6.25 +/-0.5%); type: functional

In the case of CCCCN1C(=O)/C(=C/c2ccc(F)cc2)CC1(C(=O)NC(C)(C)C)C(=O)c1ccc(Cl)cc1 (stereo unspecified), the Activity (Ca-Ski [1]) is reported as “Dose-dependent effect”.
For CC(C)N1C(=O)/C(=C/c2ccc(F)cc2)CC1(C(=O)NC(C)(C)C)C(=O)c1ccc(Br)cc1 (stereo unspecified), the Activity (Ca-Ski [1]) was “Dose-dependent effect”.
For CC(C)N1C(=O)/C(=C/c2ccc(F)cc2)CC1(C(=O)NC(C)(C)C)C(=O)c1ccc(Cl)cc1 (stereo unspecified), the “fold change (FC)” value [2] was 0.465, the “fold change (FC)” value [3] was 0.653 and the Activity (Ca-Ski [4]) was 9.65%. For the same compound, the viability at 12.5 µM (Ca-Ski [5]) was 85.4%, the “fold change (FC)” value [6] was 0.354 and the Activity (Ca-Ski [7]) was 6.24%. For the same compound, the Activity (Ca-Ski [8]) was 26.2%, the Activity (Ca-Ski [9]) was 41.2% and the Activity (Ca-Ski [1]) was “Dose-dependent effect”. The “fold change (FC)” value [10] was 0.432, the Activity (Ca-Ski [11]) was 23.56% and the “fold change (FC)” value [12] was 0.547. The Activity (Ca-Ski [13]) was 0.18%, the Activity (Ca-Ski [14]) was 15% and the Activity (Ca-Ski [15]) was 8.2%. For the same compound, the viability at 25 µM (Ca-Ski [16]) was 75.3%, the Activity (Ca-Ski [17]) was “Tde” and the Activity (Ca-Ski [18]) was “Dose-dependent effect”. For the same compound, the “fold change (FC)” value [19] was 0.483, the viability at 50 µM (Ca-Ski [20]) was 58.5% and the Activity (Ca-Ski [21]) was 0.105%. The Activity (Ca-Ski [22]) was 14.9%, the Activity (Ca-Ski [23]) was 0.217% and the Activity (Ca-Ski [24]) was 15.6%.
